# Measured values: patent US20100151452A1, “Methods and Systems for Searching for Regulators of the Fer Protein and for Monitoring the Effects of the Fer Protein” (priority 2006, published 2010)
# Test system: CDK2
# Test: Western blot of CDK2 level
# Type: cell-based, human
# Settings: PC3 cells, simultaneous exposure to fer-siRNA and cycloheximide 10 μg/ml 4 h
# Procedure: For treatment with cycloheximide, PC3 cells transfected with siRNA for 72 h, were subjected to 10 μg/ml cycloheximide for additional 4 h, at the end of the transfection process.
# Whole cell lysates (WCL) were prepared as described before (Salem et al., 2005). For Western blot analysis, 20-30 μg proteins from each sample were resolved in 7-12% SDS-PAGE. Electroblotted proteins were detected using specific anti-Fer antibodies (Priel-Halachmi et al., 2000), anti-CDK2 (sc-6248, Santa Cruz), anti-CDK1 (sc-54, Santa Cruz), anti-CDK4 (610148, BD Biosciences), anti-CDK6 (554086, BD Biosciences), anti-CDK7 (sc-856, Santa Cruz), anti-cyclin A (sc-751, Santa Cruz), anti-cyclin D1 (sc-6281, Santa Cruz), anti-cyclin E (sc-247, Santa Cruz), anti-cyclin H (sc-1662, Santa Cruz), anti-pRB (sc-102, Santa Cruz), anti-phosphosthreonine^821-pRB (pThr821) (44-582, Biosource), anti-phosphoserine^795-pRB (pSer795) (sc-7986-R, Santa Cruz), anti-phosphoserine^780-pRB (pSer780) (9307, Cell Signaling), anti-phosphoserine^807/811-pRB (pSer807/811) (9308, Cell Signaling), anti-PP1α (2582, Cell Signaling), anti-PP1 (sc-443, Santa Cruz), anti-phosphothreonine^320-PP1α (pThr320) (2581, Cell Signaling), anti-p21Cip1 (sc-6246, Santa Cruz), anti-p27Kip1 (sc-528, Santa Cruz), anti-HA (NMS-101R, Covance), anti-Myc (13-2500, Zymed), and anti-Actin antibody (A 4700, Sigma). […]
smiles,measurement,value
C[C@@H]1C[C@@H]([C@H](O)CC2CC(=O)NC(=O)C2)C(=O)[C@@H](C)C1 [cycloheximide],effect on the fer-siRNA induced decrease of the level of CDK2,alleviated this effect
